Laboratory results published in patent publication US20050027106A1, “Cancerous disease modifying antibodies” (priority 2003, published 2005).

What was measured:
[1] = Live/Dead cytotoxicity assay, hybridoma supernatant; conditions: human
Description: (§1) In conjunction with testing for antibody binding, the cytotoxic effects of the hybridoma supernatants were tested in the same colon cancer and normal cell lines: HT-29, SW1116 (and Lovo for AR26A439.3) and CCD-27sk. The Live/Dead cytotoxicity assay was obtained from Molecular Probes ([…].). The assays were performed according to the manufacturer's instructions with the changes outlined below. Cells were plated before the assay at the predetermined appropriate density. After 2 days, 100 μl of supernatant from the hybridoma microtitre plates were transferred to the cell plates and incubated in a 5 percent CO2 incubator for 5 days. […] An anti-EGFR antibody (C225) was also used in the assay for comparison. After 5 days of treatment, the plate was then emptied by inverting and blotting dry. Room temperature DPBS (Dulbecco's phosphate buffered saline) containing MgCl2 and CaCl2 was dispensed into each well from a multichannel squeeze bottle, tapped 3 times, emptied by inversion and then blotted dry. 50 μl of the fluorescent Live/Dead dye diluted in DPBS containing MgCl2 and CaCl2 was added to each well and incubated at 37° C. in a 5% CO2 incubator for 30 minutes. The plates were read in a Perkin-Elmer HTS7000 fluorescence plate reader and the data was analyzed in Microsoft Excel.

[2] = tested on: HT-29 colon cancer cell line; assay: as above; conditions: 5 days
Description: as §1

[3] = tested on: CCD-27sk normal cell line; assay: as above; conditions: 5 days
Description: as §1

| SMILES | cytotoxicity at 5 days [1] [%] | cytotoxicity at 5 days ([1]; Cytotoxicity (%) HT-29 Average) [%] | Cytotoxicity (%) HT-29 Average [2] [%] | cytotoxicity at 5 days ([1]; Cytotoxicity (%) CCD-27sk Average) [%] | Cytotoxicity (%) CCD-27sk Average [3] [%] |
| --- | --- | --- | --- | --- | --- |
| [N-]=[N+]=[N-] [NaN3, sodium azide] | 4 | 59 | 57 |  |  |
| C[C@@H]1C[C@@H]([C@H](O)CC2CC(=O)NC(=O)C2)C(=O)[C@@H](C)C1 [Cycloheximide] | 56 | 46 | 48 | 21 | 40 |
